Reference: patent US12115159B2, “Pharmaceutical composition for preventing or treating nonalcoholic fatty liver disease, containing GPR119 ligand as active ingredient” (DONG-A ST CO., LTD., priority 2018, dated 2024)

Experiments:
[1] = test system: ob/ob mouse with induced non-alcoholic steatohepatitis; experiment: AST and ALT measurement in blood, ob/ob NASH mouse model; format: in vivo; settings: 100 mg/kg/day mixed in special diet for 10 weeks, plasma, vs. Ob-NASH, FIG. 4
Method: (§1) A six-week-old male ob/ob mouse with leptin deficiency was fed with a special diet containing high fat, high fructose, and high cholesterol for 10 weeks, and thus was induced to develop non-alcoholic steatohepatitis. A mixed form of diet was prepared so that a daily dose of (3-(4-(3-(1-(5-ethylpyrimidin-2-yl)piperidin-4-yl)propoxy)-2,6-difluorophenyl)-5-isopropyl-1,2,4-oxadiazole (hereinafter, “compound 1”) reaches 100 mg/kg/day in the compound represented by the chemical formula 1, and supplied to the mouse from a time point of starting the supply of the special diet for 10 weeks.
The mouse model with induced non-alcoholic steatohepatitis was subjected to autopsy, after which plasma was separated therefrom, so as to quantify aspartate aminotransferase (AST) and alanine aminotransferase (ALT) by using an automatic blood analyzer (Konelab 20i), and the results thereof are shown in FIG. 4.

[2] = test system: C57BL/6J mouse with induced non-alcoholic steatohepatitis; experiment: AST and ALT measurement in blood, C57BL/6J DIO-NASH mouse model; format: in vivo; settings: C57BL/6J DIO-NASH_Compd1, compound in special diet for eight weeks, plasma, vs. DIO-NASH; FIG. 15
Method: (§2) A six-week-old male C57BL/6J mouse was fed with a special diet comprising high fat, high fructose, and high cholesterol for at least 26 weeks, and thus was induced to develop non-alcoholic steatohepatitis. It was confirmed that fatty liver and inflammatory fibrosis are induced through a biopsy of liver tissues three weeks before drug supply, and mice were evenly distributed into each group based on the area of collagen stained in the liver tissues. A feed was prepared by mixing the compounds according to the present invention in a special diet and supplied for additional eight weeks. According to the diet supplied to the mice, each of the groups was classified as a control group fed with a normal diet (Normal), a positive control group in which mice with induced non-alcoholic steatohepatitis due to the special diet were not supplied with a drug (DIO-NASH), and a group in which mice with induced non-alcoholic steatohepatitis were supplied with the compound 1 in an amount of 30 mg/kg/day (L) and […] (H) (Cmpd1 (L) and Cmpd1 (H), respectively).
Each of the mouse groups was subjected to autopsy, after which plasma was separated therefrom, so as to quantity aspartate aminotransferase (AST) and alanine aminotransferase (ALT) by using an automatic blood analyzer (Konelab 20i).

[3] = test system: C57BL/6J mouse with induced non-alcoholic steatohepatitis; experiment: NAFLD activity score (NAS) before and after administration, C57BL/6J DIO-NASH mouse model; format: in vivo; settings: compound in special diet for eight weeks, FIG. 12
Method: as §2

[4] = test system: ob/ob mouse with induced non-alcoholic steatohepatitis; experiment: Concentration of proteins associated with inflammation and fibrosis in liver tissues (ELISA), ob/ob NASH mouse model; format: in vivo; settings: 100 mg/kg/day mixed in special diet for 10 weeks, vs. Ob-NASH, FIG. 5
Method: as §1
To evaluate an effect on the expression of inflammation-related genes and fibrosis-related proteins in liver tissues, the liver tissues obtained from the mouse model were put into RIPA buffer (Cell Signaling) and pulverized with TissueLyser II™ (Quiagen), after which a total protein concentration was quantified with Pierce BCA Protein Assay Kit (Thermo Fisher Scientific) and a protein concentration of Mouse Ccl2 (=Mcp1; R&D Systems, MJE00) and Timp1 (R&D Systems, MTM100) in the liver tissues was quantified by using a commercially available ELISA kit, so that the results thereof are shown in FIG. 5.

[5] = test system: C57BL/6J mouse with induced non-alcoholic steatohepatitis; experiment: Change in gene expression in liver tissues (RNAseq), C57BL/6J DIO-NASH mouse model; format: in vivo; settings: C57BL/6J DIO-NASH_Compd1, eight weeks after drug administration, vs. DIO-NASH, FIG. 16
Method: as §2
To analyze a change in total gene expression in liver tissues isolated from the above mouse model in eight weeks after drug administration, the isolated RNA fraction was used to generate a library by using NeoPrep (Illumina), and subjected to RNAseq profiling through NexSeq 500 (Illumina), after which bioinformatics analysis was performed and changes in major gene groups were classified for each function, so that the results thereof are shown in FIG. 16.

[6] = test system: human monocytes (THP-1); experiment: Effect on differentiation of human monocytes into macrophages (IL-1β secretion, ELISA); format: cell-based; settings: THP-1 co-treated with compound during PMA (50 ng/ml) differentiation for 48 hours, then LPS (0.5 ng/ml) for four hours; FIG. 8
Method: (§3) Then, THP-1 monocytes were treated with PMA (50 ng/ml) for 48 hours to be differentiate into macrophages, while the compound 1 was co-treated, then replaced with serum-free medium, and then treated with lipopolysaccharides (LPS, 0.5 ng/ml) for four hours so as to quantity interleukin-1β (IL-1β, R&D Systems, DY201) secreted into the medium by using a commercialized ELISKA kit and evaluate an effect on the differentiation of monocytes, so that the results thereof are shown in FIG. 8.

[7] = test system: C57BL/6J mouse with induced non-alcoholic steatohepatitis; experiment: Evaluation of fibrosis (Sirius stain, type I collagen immunostaining), C57BL/6J DIO-NASH mouse model; format: in vivo; settings: C57BL/6J DIO-NASH_Compd1, compound in special diet for eight weeks, vs. DIO-NASH; FIGS. 13 and 14
Method: as §2
Then, for the evaluation of fibrosis, the fibers of the liver tissues were specifically stained with Sirius Res stain in the mice of each group, and a content of type I collagen in the liver tissues was measured by an imaging analysis method after immunostaining, so that the results thereof are shown in FIGS. 13 and 14.

[8] = test system: ob/ob mouse with induced non-alcoholic steatohepatitis; experiment: Histological examination of liver (HE, Masson's Trichrome / Sirius stain) in ob/ob mouse model with induced non-alcoholic steatohepatitis; format: in vivo; settings: 100 mg/kg/day mixed in special diet for 10 weeks, vs. Ob-NASH
Method: as §1
For a histological examination, the prepared mouse model with induced non-alcoholic steatohepatitis was subjected to autopsy to fix an isolated liver tissue in 10% formalin and prepare a paraffin block, thereby obtaining a 2 μm-thick tissue section. To confirm infiltration of inflammatory cells, Hematoxylin and Eosin (HE) stain was performed using an automatic staining machine (Autostainner XL, Leica), and the results thereof are shown in FIGS. 1 and 2.
Then, for evaluation of fibrosis, fibers in liver tissue were specifically stained by using Masson's Trichrome stain or Sirius Res stain, and the results thereof are shown in FIGS. 2 and 3.

[9] = test system: C57BL/6J mouse with induced non-alcoholic steatohepatitis; experiment: Histological examination (HE) and triglyceride content of liver, C57BL/6J DIO-NASH mouse model; format: in vivo; settings: Compd1 (H) group, in special diet for eight weeks after induction, vs. DIO-NASH, FIGS. 10 and 11
Method: as §2
For a histological examination, the prepared C57BL/6J mouse model was subjected to autopsy to fix an isolated liver tissue in 10% formalin and prepare a paraffin block, thereby obtaining a 2 μm-thick tissue section. […]

[10] = test system: differentiated macrophages (THP-1); experiment: Effect on activation of differentiated macrophages by LPS (IL-1β secretion, ELISA); format: cell-based, human; settings: differentiated macrophages treated with compound for 48 hours, then LPS; FIG. 9
Method: as §3
In addition, after treating the differentiated macrophages with the compound 1 for 48 hours, the secreted IL-1β was quantified by the same method as above with regard to the activation of immune cells by LPS, so as to evaluate an effect on the activation of differentiated macrophages.

[11] = test system: ob/ob mouse with induced non-alcoholic steatohepatitis; experiment: Expression of genes associated with inflammation and fibrosis in liver tissues (real-time PCR), ob/ob NASH mouse model; format: in vivo; settings: 100 mg/kg/day mixed in special diet for 10 weeks, FIG. 6
Method: as §1
To measure an expression level of inflammation-related genes and fibrosis-related genes in liver tissues, Trizol® (Invitrogen) was added to the liver tissues collected from the mouse model, after which a total RNA was extracted from the tissues according to the method provided by the manufacturer, and then cDNA was synthesized by using a reverse transcriptase. Then, a real-time polymerase chain reaction was performed in LightCycler®480 Instrument II (RocheLifeScience) equipment by using a reagent of SYBR Green I Master Mix (Roche, 04707516001), and the results thereof are shown in FIG. 6.

## CCc1cnc(N2CCC(CCCOc3cc(F)c(-c4noc(C(C)C)n4)c(F)c3)CC2)nc1 [compound 1, 3-(4-(3-(1-(5-ethylpyrimidin-2-yl)piperidin-4-yl)propoxy)-2,6-difluorophenyl)-5-isopropyl-1,2,4-oxadiazole]
[1]
  ALT level in blood: significant inhibition of increase
  AST level in blood: significant inhibition of increase
[2]
  concentration of ALT in blood: significantly inhibited increase
  concentration of AST in blood: significantly inhibited increase
[3]; C57BL/6J DIO-NASH, disease worsened in 50% of the DIO-NASH group
  worsening of disease by NAFLD activity score (NAS), before vs. after administration: no individual was deteriorated
[3]; C57BL/6J DIO-NASH_Compd1 group
  share of group in which the disease was ameliorated by NAFLD activity score (NAS): about 50%
[4]
  protein level of Ccl2 (=Mcp1) in liver tissues: significantly inhibited
  protein level of Timp1 in liver tissues: significantly inhibited
[5]
  expression of fibrosis markers in liver tissues: remarkable decrease
  expression of macrophage markers in liver tissues: remarkable decrease
  expression of monocyte attractants in liver tissues: remarkable decrease
[6]
  IL-1β secretion caused by activation of macrophages: decreased in a concentration-dependent manner
[7]
  cross-linking formation in fibers of the liver tissues: remarkable decrease
  type I collagen in liver tissues: significant decrease
[8]; FIGS. 1 and 2
  infiltration of inflammatory cells in liver tissues: significantly inhibited
[8]; FIGS. 2 and 3
  fibrosis of liver tissues: significantly inhibited
[9]
  fat deposits in liver tissues: significant decrease
  infiltration of inflammatory cells in liver tissues: significant decrease
[10]
  IL-1β secretion caused by activation of macrophages: decreased in a concentration-dependent manner
[11]
  increase in expression of fibrosis-related genes (Tgfb1, Col1a, Timp1, Timp2, Acta2) in liver tissues: significantly inhibited
  increase in expression of inflammation-related genes (Ccl2, Lgals3, Tnfa) in liver tissues: significantly inhibited
